Like-named read-outs stand apart in the source and are kept apart here.
Tested on: mouse T lymphocytes
Test: T-cell proliferation assay (ionomycin plus PMA induced T-cell stimulation, tritiated thymidine uptake)
Type: cell-based, C57B1/6 mice
Conditions: for IC50: read-out: IC₅₀, inhibition of T-cell proliferation
Protocol: The principle of this assay is to measure the proliferation of mouse T lymphocytes stimulated with the combination of ionomycin plus PMA. A positive sample in this assay will inhibit T-cell proliferation, as indicated by reduced tritiated thymidine uptake.
Purified demethimmunomycin, as prepared by HPLC above, was dissolved in absolute ethanol at 1 mg/ml.
Spleens from C57B1/6 mice were taken under sterile conditions and gently dissociated in ice-cold RPMI 1640 culture medium (GIBCO, Grand Island, N.Y.) supplemented with 10% heat-inactivated fetal calf serum (GIBCO). Cells were pelleted by centrifugation at 1500 rpm for 8 minutes. Contaminating red cells were removed by treating the pellet with ammonium chloride lysing buffer (GIBCO) for 2 minutes at 4°C. Cold medium was added and cells were again centrifuged at 1500 rpm for 8 minutes. T lymphocytes were then isolated by separation of the cell suspension on nylon wool columns as follows: Nylon wool columns were prepared by packing approximately 4 grams of washed and dried nylon wool into 20 ml plastic syringes. The columns were sterilized by autoclaving at 250°F [120°C] for 30 minutes. Nylon wool columns were wetted with warm (37°C) culture medium and rinsed with the same medium. Washed spleen cells resuspended in warm medium were slowly applied to the nylon wool. The columns were then incubated in an upright position at 37°C for 1 hour. Non-adherent T lymphocytes were eluted from the columns with warm culture medium and the cell suspensions were spun as above.
Purified T lymphocytes were resuspended at 2.5 x 10⁵ cells/ml in complete culture medium composed of RPMI 1640 medium with 10% heat-inactivated fetal calf serum, […] glutamine, 1 mM sodium pyruvate, 2 x 10⁻⁵ M 2-mercaptoethanol and 50 »g/ml gentamycin. Ionomycin was added at 250 ng/ml and PMA at 10 ng/ml. The cell suspension was immediately distributed into 96 well flat-bottom microculture plates (Costar)(registered trade mark) at 200 »l/well. The control, being the medium without test drug, and various below-indicated dilutions of the sample (above-described purified demethimmunomycin) to be tested were then added in triplicate wells at 20 »l/well. L-679,934 was used as a standard. The culture plates were then incubated at 37°C in a humidified atmosphere of 5% CO₂-95% air for 44 hours. The proliferation of T lymphocytes was assessed by measurement of tritiated thymidine incorporation. After 44 hours of culturing, the cells were pulse-labelled with 2 »Ci/well of tritiated thymidine (NEN, Cambridge, MA). After another 4 hours of incubation, cultures were harvested on glass fiber filters using a multiple sample harvester. Radioactivity of filter discs corresponding to individual wells was measured by standard liquid scintillation counting methods (Betacounter). Mean counts per minute of replicate wells were calculated and the results expressed as percent inhibition of tritiated thymidine uptake (proliferation) as follows: [formula]
• 1. Mouse T cell cultures were pulsed with ³H-thymidine for 4 hours prior to harvesting at 48 hours. • 2. […] IC₅₀ = 1.4 ng/ml = 1.81 nM, for demethimmunomycin, (L-638,742), and generally in the range of 1.6 to 1.9 x 10⁻⁹ molar. • 4. Inhibition of T-cell proliferation by demethimmunomycin was reversed by the addition of 50»/ml of IL-2 (recombinant IL-2) at the initiation of culture.

[1] = Mus musculus, T-lymphocyte, 48 h

## CC[C@@H]1/C=C(\C)C[C@H](C)C[C@H](OC)[C@H]2O[C@@](O)(C(=O)C(=O)N3CCCC[C@H]3C(=O)O[C@H](/C(C)=C/[C@@H]3CC[C@@H](O)[C@H](O)C3)[C@H](C)[C@@H](O)CC1=O)[C@H](C)C[C@@H]2OC [demethimmunomycin, 31-desmethoxy-31-hydroxy-L-683,590]
[1]
  inhibition at 0.0006 µg/mL: 0%
  inhibition at 0.0009 µg/mL: 9%
  inhibition at 0.0013 µg/mL: 38.2%
  inhibition at 0.0019 µg/mL: 72.1%
  inhibition at 0.0029 µg/mL: 86.3%
  inhibition at 0.0044 µg/mL: 91.9%
  inhibition at 0.0066 µg/mL: 97.9%
Mus musculus, T-lymphocyte
  IC50: 1.4 ng/mL
Mus musculus, T-lymphocyte, range generally found
  IC50: 1.6 to 1.9 nM
Mus musculus, T-lymphocyte, same value as 1.4 ng/ml, given in molar terms
  IC50: 1.81 nM
Addition of recombinant IL-2 at the initiation of culture
  Inhibition of T-cell proliferation on addition of IL-2: reversed

Source: EP0349061B1, “Immunosuppressant agent” (Merck & Co., Inc., priority 1988, dated 1990)
